pIC50: −log10 of the molar value. The source made the active and inactive calls. The rule behind the calls is not given here.
Legend:
RAW264.7 [1] = assay: Anti-inflammatory activity in mouse RAW264.7 cells assessed as inhibition of LPS-induced NO production preincubated for 2 hrs followed by LPS addition and measured after 18 hrs by Griess reagent-based assay; format: functional, cell-based
RAW264.7 [2] = assay: Anti-inflammatory activity in mouse RAW264.7 cells assessed as inhibition of LPS-induced IL-6 level after 24 hrs by ELISA; format: functional, cell-based
RAW264.7 [3] = assay: Anti-inflammatory activity in mouse RAW264.7 cells assessed as inhibition of LPS-induced TNF-alpha level after 24 hrs by ELISA; format: functional, cell-based
RAW264.7 [4] = assay: Anti-inflammatory activity in mouse RAW264.7 cells assessed as inhibition of LPS-induced COX-2 level after 16 hrs by Western blot analysis; format: functional, cell-based
RAW264.7 [5] = assay: Cytotoxicity against mouse RAW264.7 cells assessed as reduction in cell viability at 3.1 to 25 uM after 48 hrs by MTT assay; format: cell-based; conditions: raw264.7, 48 h, dose 3.1-25 µM
RAW264.7 [6] = assay: Anti-inflammatory activity in mouse RAW264.7 cells assessed as inhibition of LPS-induced iNOS level after 16 hrs by Western blot analysis; format: functional, cell-based
[7] = biological target: T1, Inhibitor of nuclear factor kappa-B kinase subunit alpha (Mus musculus) (UniProt Q60680); assay: Inhibition of IKKalpha in mouse RAW264.7 cells assessed as inhibition of LPS-induced IKK-alpha phosphorylation level after 16 hrs by Western blot analysis; format: cell-based
T1 sequence (whole entry): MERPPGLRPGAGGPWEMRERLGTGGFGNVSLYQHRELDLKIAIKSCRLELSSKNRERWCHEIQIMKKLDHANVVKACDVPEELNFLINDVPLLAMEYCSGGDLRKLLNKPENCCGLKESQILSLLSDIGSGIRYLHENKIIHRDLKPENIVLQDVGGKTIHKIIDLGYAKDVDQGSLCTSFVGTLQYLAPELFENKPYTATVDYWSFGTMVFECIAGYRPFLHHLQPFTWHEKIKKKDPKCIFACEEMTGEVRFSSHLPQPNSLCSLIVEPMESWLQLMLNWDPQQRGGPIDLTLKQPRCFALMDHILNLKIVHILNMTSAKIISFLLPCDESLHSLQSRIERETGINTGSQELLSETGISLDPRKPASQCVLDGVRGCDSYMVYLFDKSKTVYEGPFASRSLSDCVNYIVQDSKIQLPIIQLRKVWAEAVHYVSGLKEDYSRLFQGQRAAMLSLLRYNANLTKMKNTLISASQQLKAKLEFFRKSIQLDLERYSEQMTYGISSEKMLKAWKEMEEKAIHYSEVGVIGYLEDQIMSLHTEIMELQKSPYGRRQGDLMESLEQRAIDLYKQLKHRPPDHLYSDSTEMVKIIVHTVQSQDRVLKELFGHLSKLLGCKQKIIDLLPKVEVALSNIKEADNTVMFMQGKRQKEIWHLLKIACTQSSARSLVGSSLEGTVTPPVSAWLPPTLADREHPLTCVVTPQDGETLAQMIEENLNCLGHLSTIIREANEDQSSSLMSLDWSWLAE

[8] = biological target: T2, Inhibitor of nuclear factor kappa-B kinase subunit beta (Mus musculus) (UniProt O88351); assay: Inhibition of IKKbeta in mouse RAW264.7 cells assessed as inhibition of LPS-induced IKK-beta phosphorylation level after 16 hrs by Western blot analysis; format: cell-based
T2 sequence (whole entry): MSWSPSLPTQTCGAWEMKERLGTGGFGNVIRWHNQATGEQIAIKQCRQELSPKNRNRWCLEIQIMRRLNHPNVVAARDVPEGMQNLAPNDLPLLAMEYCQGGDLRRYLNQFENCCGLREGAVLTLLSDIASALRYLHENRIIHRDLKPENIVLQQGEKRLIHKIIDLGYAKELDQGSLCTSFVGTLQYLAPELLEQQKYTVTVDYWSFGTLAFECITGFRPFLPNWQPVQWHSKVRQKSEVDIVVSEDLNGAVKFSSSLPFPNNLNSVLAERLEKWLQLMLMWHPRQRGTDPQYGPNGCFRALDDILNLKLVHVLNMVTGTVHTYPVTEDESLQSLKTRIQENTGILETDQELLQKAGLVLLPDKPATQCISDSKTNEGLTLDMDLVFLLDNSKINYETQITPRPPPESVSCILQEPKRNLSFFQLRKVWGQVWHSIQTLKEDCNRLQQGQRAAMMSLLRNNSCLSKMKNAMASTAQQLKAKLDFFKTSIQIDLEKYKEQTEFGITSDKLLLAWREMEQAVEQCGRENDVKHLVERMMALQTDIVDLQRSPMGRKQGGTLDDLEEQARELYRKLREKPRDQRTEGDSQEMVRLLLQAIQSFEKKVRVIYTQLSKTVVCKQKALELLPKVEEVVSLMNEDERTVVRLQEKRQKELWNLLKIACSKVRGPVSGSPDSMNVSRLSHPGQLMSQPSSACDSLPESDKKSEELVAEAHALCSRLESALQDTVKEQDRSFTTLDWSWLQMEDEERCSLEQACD

RAW264.7 [9] = assay: Anti-inflammatory activity in mouse RAW264.7 cells assessed as inhibition of LPS-induced IL-1beta level after 24 hrs by ELISA; format: functional, cell-based

Row | Compound | pIC50 (RAW264.7 [1]) | further results
1 | CCC(=O)C1O[C@](O)(CCc2ccoc2)[C@@]2(C)CCCC(C)(C)[C@H]12 (single isomer, unassigned) | < 4.30 | –
2 | CC1=C(CCc2ccoc2)[C@@]2(C)CCC(=O)C(C)(C)C2=C(O)C1=O | < 4.30 | –
3 | CC1=C(CCc2ccoc2)[C@@]2(C)CCCC(C)(C)C2=C(O)C1=O | 4.34 | –
4 | CC1=C(CCc2ccoc2)[C@@]2(C)CCCC(C)(C)[C@@H]2[C@H](O)C1=O | < 4.30 | –
5 | CC(=O)O[C@@H]1CC[C@@]2(C)[C@@H](C(=O)[C@H](O)[C@@H](C)[C@]2(O)CCc2ccoc2)C1(C)C | < 4.30 | –
6 | CO[C@H]1C=C(CCC2=C(C)C(=O)C(O)=C3C(C)(C)C(=O)CC[C@]23C)C(=O)O1 | < 4.30 | –
7 | CC1=C(CCC2=CCOC2=O)[C@@]2(C)CCCC(C)(C)[C@@H]2CC1=O | 4.36 | –
8 | C[C@H]1C(=O)[C@@H](O)[C@H]2C(C)(C)C(=O)CC[C@]2(C)[C@@]1(O)CCc1ccoc1 | < 4.30 | –
9 | CCC(=O)[C@H]1O[C@@](CCC2=CC(OC)OC2=O)(OC)[C@@]2(C)CC[C@@H](OC(C)=O)C(C)(C)[C@H]12 (stereo partly specified) | < 4.30 | –
10 | CCOC1CC(O)(CCC2=C(C)C(=O)[C@@H](O)[C@H]3C(C)(C)CCC[C@]23C)CO1 (stereo partly specified) | < 4.30 | –
11 | CCC(O)C(=O)[C@H]1C(C)(C)C(=O)CC[C@]1(C)C(=O)CCc1ccoc1 (stereo partly specified) | < 4.30 | –
12 | C[C@@H]1C(=O)C(O)=C2C(C)(C)C(=O)CC[C@]2(C)[C@@]1(O)CCc1ccoc1 | < 4.30 | –
13 | CC1=C(CCc2ccoc2)[C@@]2(C)CCC(=O)C(C)(C)[C@@H]2[C@@H](O)C1=O | < 4.30 | –
14 | CC(=O)O[C@@H]1CC[C@]2(C)C(CCc3ccoc3)=C(C)C(=O)[C@@H](O)[C@H]2C1(C)C | 4.65 | –
15 | COC1C=C(CCC2=C(C)C(=O)[C@@H](O)[C@H]3C(C)(C)[C@H](O)CC[C@]23C)C(=O)O1 (stereo partly specified) | 4.56 | –
16 | COC1C=C(CC[C@@]2(O)[C@H](C)C(=O)[C@@H](O)[C@H]3C(C)(C)CCC[C@@]32C)C(=O)O1 (stereo partly specified) | 4.61 | –
17 | CC(=O)O[C@@H]1CC[C@]2(C)C(CCC3=CCOC3=O)=C(C)C(=O)[C@@H](O)[C@H]2C1(C)C | < 4.30 | –
18 | CCC(=O)[C@H]1O[C@](O)(CCC2=CC(OC)OC2=O)[C@@]2(C)CCCC(C)(C)[C@H]12 (stereo partly specified) | 4.80 | –
19 | CCC(=O)[C@H]1O[C@@](CCc2ccoc2)(OC)[C@@]2(C)CCCC(C)(C)[C@H]12 | < 4.30 | –
20 | C[C@@H]1C[C@H]2[C@@H]3CCC4=CC(=O)C=C[C@]4(C)[C@@]3(F)[C@@H](O)C[C@]2(C)[C@@]1(O)C(=O)CO [DEXAMETHASONE] | 4.61 | –
21 | CCOC1CC(O)(CCC2=C(C)C(=O)[C@@H](O)[C@H]3C(C)(C)[C@H](OC(C)=O)CC[C@]23C)CO1 (stereo partly specified) | 4.52 | –
22 | CCC(=O)[C@H]1O/C(=C\Cc2ccoc2)[C@@]2(C)CCCC(C)(C)[C@H]12 | < 4.30 | –
23 | C[C@@H]1[C@@H](O)C(=O)[C@H]2C(C)(C)CCC[C@]2(C)[C@@]1(O)CCc1ccoc1 | < 4.30 | –
24 | CC1=C(CCc2ccoc2)[C@@]2(C)CC[C@@H](O)C(C)(C)[C@@H]2[C@H](O)C1=O | < 4.30 | –
25 | CCOC1CC(O)(CCC2=C(C)C(=O)C(O)=C3C(C)(C)C(=O)CC[C@]23C)CO1 (stereo partly specified) | 4.64 | –
26 | CO[C@@H]1C=C(CCC2=C(C)C(=O)C(O)=C3C(C)(C)C(=O)CC[C@]23C)C(=O)O1 | < 4.30 | –

Second part, led by results:

Row | pIC50 (RAW264.7 [1]) | Compound | further results
27 | 4.48 | CC1=CC[C@H]2[C@@](C)(CO)CCC[C@]2(C)[C@H]1CC/C(C)=C/CO | –
28 | 4.39 | CC1=CC[C@@H]2[C@](C)(CCC[C@]2(C)C(=O)O)[C@H]1CC/C(C)=C/CO | –
29 | 5.41 | CCC(=O)[C@H]1O[C@@](CCC2=CC(OC)OC2=O)(OC)[C@@]2(C)CCCC(C)(C)[C@H]12 (stereo partly specified) | inhibition (RAW264.7 [2]): Dose-dependent effect; inhibition (RAW264.7 [3]): Dose-dependent effect; inhibition (RAW264.7 [4]): Active; Activity (RAW264.7 [5]): Non-Toxic; inhibition (RAW264.7 [6]): Active; inhibition [7]: Active; inhibition [8]: Active; inhibition (RAW264.7 [9]): Dose-dependent effect
30 | 4.48 | C=C1CC[C@H]2C(C)(C)CCC[C@]2(C)[C@H]1CC/C(C)=C/CO | –
31 | < 4.30 | COC(OC)[C@@]1(C)CCC[C@@]2(C)[C@H]1CC=C(C)[C@@H]2CC/C(C)=C/CO | –
32 | < 4.30 | CCC(O)C(=O)[C@H]1C(C)(C)CCC[C@]1(C)C(=O)CCC1=CCOC1=O (stereo partly specified) | –
33 | 4.54 | CC1=CC[C@@H]2[C@](C)(CCC[C@]2(C)C=O)[C@H]1CC/C(C)=C/CO | –
34 | 4.66 | CCOC1CC(O)(CCC2=C(C)C(=O)C(O)=C3C(C)(C)[C@H](OC(C)=O)CC[C@]23C)CO1 (stereo partly specified) | –
35 | 4.66 | CCC(=O)[C@H]1O[C@@](CCC2=CCOC2=O)(OC)[C@@]2(C)CCCC(C)(C)[C@H]12 | –
36 | 4.39 | COC1C=C(CCC2=C(C)C(=O)C(O)=C3C(C)(C)[C@H](OC(C)=O)CC[C@]23C)C(=O)O1 (stereo partly specified) | –
37 | 4.58 | COC1CC(O)(CCC2=C(C)C(=O)[C@@H](O)[C@H]3C(C)(C)CCC[C@]23C)CO1 (stereo partly specified) | –
38 | 4.70 | CC1=CC[C@H]2C(C)(C)CCC[C@]2(C)[C@H]1CC/C(C)=C/CO | –
